Measurements: US20240167030A1, “METHODS AND COMPOSITIONS FOR ACCELERATING OLIGODENDROCYTE MATURATION” (Case Western Reserve University, priority 2021, published 2024)

What was measured:
Format in all cases: cell-based, mouse
[1] = tested on: SOX6 biomolecular condensates; assay: confocal immunofluorescence coupled with RNA-FISH of Sox6 condensates in intermediate oligodendrocytes; details: upon addition of the drug
Excerpt: Given the massive density of SOX6, an inherently disordered protein, at super-enhancer associated genes that increase sharply in intermediate oligodendrocytes and then decrease in myelinating oligodendrocytes, it was hypothesized that these regions represent SOX6 biomolecular condensates that stabilize, not inhibit, the intermediate oligodendrocyte state (FIGS. 8F and 8G) (Daneshvar et al., 2020; Henninger et al., 2020; Hnisz et al., 2017; Sabari et al., 2018). Performing high resolution confocal microscopy of immunofluorescence coupled with RNA-FISH confirmed Sox6 puncta in intermediate oligodendrocytes that co-localized with the predicted Sox6 aggregate gene Bcas1, whereas this co-localization was severely diminished at the non-aggregate gene Gapdh.

[2] = tested on: oligodendrocytes; assay: RNA-seq gene set enrichment analysis (GSEA) of SOX6 knockout oligodendrocytes; details: SOX6 knockout vs control (sgNTC) oligodendrocytes, day 3 of differentiation
Excerpt: (§1) Generation of mouse CRISPR KO OPCs: CRISPR knockout (KO) OPCs were created following a similar protocol used previously (Allan et al., 2020; Tripathi et al., 2019). In brief, guides were selected from the Brie library (Doench et al., 2016), cloned into the linearized CRISPRv2 backbone (Addgene 52961) (Sanjana et al., 2014), and sequence verified by sanger sequencing. HEK293T cells (Clonetech) were than transfected using lenti-X shots (manufacturer's protocol, Clonetech). Transfection media was replaced with N2B27 base media the following day. Lentivirus containing N2B27 was then collected after an additional 2 days, filtered, and supplemented with OPC growth factors PDGFA and FGF2 and added to OPCs at a ratio of 1:2 viral media to OPC growth media. The viral media was switched out for virus-free OPC growth the next day and allowed to recover for an additional 2 days. At this point, infected OPCs were selected for 96 hours in OPC growth media supplemented with a lethal dose of puromcyin (500 ng/mL). OPCs were allowed to recover in selection free media for at least 24 hours prior to being aliquoted and frozen down. For all experiments, infected CRISPR KO and non-targeting control OPCs were derived from the same original batch of EpiSC-derived mouse OPCs. qPCR was performed to validate a reduction of gene targets for each batch of CRISPR KO OPCs generated.
Bulk RNA-seq sample preparation and alignment: OPCs were lysed in TRIzol and RNA was isolated as described for qPCR. Purified RNA was then submitted to Novogene for library preparation and sequencing on the Illumina NovaSeq (150 bp paired end). For gene expression analysis, reads were aligned to the mm10 genome and quantified in transcripts per million (TPM) values using salmon 0.14.1 (github dot com slash COMBINE-lab slash salmon). Transcripts were summarized as gene-level TPM abundances with tximport. A gene with TPM>1 was considered expressed. Differential expression analysis was performed using DESEQ2 (bioconductor.org slash packages slash release slash bioc slash html slash DESeq2 dot html). Significant genes were called based on p-adj and fold change values as described in the results section.
RNA-seq was then performed on SOX6 knockout OPCs and differentiating oligodendrocyte cultures compared to non-targeting controls (FIGS. 10B and 11A). In agreement with binding at nearly all super-enhancers in OPCs, Sox6 knockout OPCs harbored a reduction in OPC signature genes and transcription factors such as Cspg4 and Sox10 (FIGS. 11A-11C). In differentiating oligodendrocytes, loss of SOX6 led to a reduction in Sox6 condensate gene expression (FIGS. 10B, 10C, and 11D). In agreement with these condensate genes stabilizing genes transiently expressed by intermediate oligodendrocytes, SOX6 knockout oligodendrocytes harbored a significant reduction in intermediate oligodendrocyte gene expression (FIGS. 10D and 11E).

[3] = tested on: SOX6; assay: Western blot of SOX6 in CRISPR-Cas9 knockout OPCs; details: knockout OPCs compared to non-targeting control (sgNTC)
Excerpt: as §1, with “At this point, infected OPCs were selected for 96 hours in OPC growth media supplemented with a lethal dose of puromcyin (500 ng/mL). OPCs were allowed to recover in selection free media for at least 24 hours prior to being aliquoted and frozen down. For all experiments, infected CRISPR KO and non-targeting control OPCs were derived from the same original batch of EpiSC-derived mouse OPCs. qPCR was performed to validate a reduction of gene targets for each batch of CRISPR KO OPCs generated.” left out
Western blot: For cell culture derived protein samples, at least 1 million OPCs were collected and lysed in RIPA buffer (Sigma) supplemented with protease and phosphatase inhibitor (78441, Thermo Fisher) for at least 15 minutes and cleared by centrifugation at 13,000 g at 4° C. for 15 minutes. Protein concentrations were determined using the Bradford assay (Bio-Rad Laboratories). […] Membranes were then imaged and analyzed using Image Studio™ software. […]

Compound | effect on Sox6 biomolecular condensates [1] | GSEA of SOX6 aggregate (condensate) genes [2] | GSEA of in vivo OPC signature genes [2] | GSEA of in vivo intermediate oligodendrocyte signature genes [2] | GSEA of in vivo myelinating oligodendrocyte signature genes [2] | SOX6 expression [3]
Cc1sc2c(c1C)C(c1ccc(Cl)cc1)=N[C@@H](CC(=O)OC(C)(C)C)c1nnc(C)n1-2 [JQ1] | dissolved | – | – | – | – | –
sgSox6 g1: single guide RNA for CRISPR-Cas9 SOX6 knockout, sequence TTGACGGAATGAACTGTACG (listed as DNA, chemistry not given here) | – | significant depletion | significant depletion | significant depletion | enrichment | strong reduction
sgSox6 g2: single guide RNA for CRISPR-Cas9 SOX6 knockout, sequence AGAACACGCTTTGAGAACCT (listed as DNA, chemistry not given here) | – | significant depletion | significant depletion | significant depletion | enrichment | strong reduction
